In publication PMC4907212, “Mucosal and blood-brain barrier transport kinetics of the plant N-alkylamide spilanthol using in vitro and in vivo models” (BMC Complementary and Alternative Medicine, 2016):
Read-outs that look alike come from different tables or passages of the source.

Assays:
[1] = set-up: method as in PMID 24055064; conditions: source not stated; cited from earlier work
blood-brain barrier [2] = test: Blood-to-brain transport, in vivo multiple time regression (MTR) analysis; conditions: mice
Method: Female, Institute for Cancer Research, Caesarean Derived-1 (ICR-CD-1) mice (Harlan Laboratories, Venray, Netherlands) of age 7–10 weeks and weighing 29–32 g, were used during the BBB transport experiments.
An in vivo multiple time regression (MTR) analysis was performed to investigate if spilanthol was able to cross the BBB. A dose solution of spilanthol was prepared using the Spilanthes acmella (L.) L. extract (Robertet) with a final concentration of 4 mg/ml spilanthol dissolved in 7.0 % ethanol, 2.5 % dimethylacetamide, 0.6 % tween 80 (all w/w) diluted in lactated Ringer’s solution containing 1 % BSA. The ICR-CD-1 mice were anesthetized by intraperitoneal injection with a 40 % (w/V) urethane solution (3 g/kg) and the jugular internalis vein and carotid artery were isolated, 20 μl of the spilanthol dose solution was injected into the jugular vein. Blood was obtained from the carotid artery at regular time points after injection (1, 3, 5, 10, 12.5 and 15 min, with start and end in duplicate), and the mice were immediately thereafter decapitated. After sacrificing the mice, the brains were collected. The collected blood from the carotid artery was centrifuged at 10 000 g for 15 min at 21 °C, resulting in serum. […]

blood-brain barrier [3] = test: Brain-to-blood transport after intracerebroventricular injection; type: in vivo, ICR-CD-1 mice; conditions: mice, ICV injection of 1 μl of 4 mg/ml dose solution
Method: To evaluate the efflux of spilanthol out of the brain, an in vivo method previously described was used. Briefly, after anesthetizing the ICR-CD-1 mice using a 40 % (w/V) urethane solution (3 g/kg), the skin of the skull was removed. Thereafter, a hole was made into the lateral ventricle using a 22 G needle marked with tape at 2 mm at the following coordinates: 1 mm lateral and 0.34 mm posterior to the bregma. 1 μl of the 4 mg/ml spilanthol dose solution as used for the blood-to-brain influx experiment was injected intracerebroventriculary (ICV) using a syringe pump (KDS100, KR analytical, Cheshire, UK) at a speed of 360 μl/h for 10 s. […] Prior to decapitation, blood was collected from the abdominal aorta. Serum was obtained by centrifuging the blood at 10 000 g during 15 min at 21 °C and brains were collected. The efflux brain half-life (t1/2,brain) (min) was calculated from the linear regression of the natural logarithm of the spilanthol concentration in brain (ng/g) versus time as follows: t1/2,brain = ln(2)/kout, where kout (min^−1) is defined as the efflux rate constant calculated as the negative value of the slope of the linear regression, applying first order kinetics.

[4] = Capillary depletion (distribution brain parenchyma versus capillaries); type: in vivo, ICR-CD-1 mice; conditions: female, ICR-CD-1, mouse, iv, 80 μg per mouse, mice, 10 min after i.v. injection
Method: To investigate the distribution of spilanthol in the parenchyma and capillaries of the brain, a capillary depletion experiment was performed. By means of this experiment, it is possible to distinguish the transport of spilanthol into the brain (represented by the parenchyma) and part of spilanthol which is trapped by the endothelial cells of the brain (represented by the capillaries). The method of Triguero et al., as modified by Gutierrez et al., was used. Briefly, after anesthetizing the mice intraperitoneally with 40 % (w/V) urethane solution (3 g/kg), 20 μl of the 4 mg/ml spilanthol dose solution was injected into the jugular vein. Blood was collected from the abdominal aorta ten min after injection and serum was obtained by centrifuging the blood at 10 000 g during 15 min at 21 °C. Immediately after blood collection, the skin of the mice’s chest is removed to clamp the aorta and the jugular veins are severed. Immediately after clamping the aorta, the brain is perfused manually with 20 ml of Lactated Ringer’s solution. […]
The distribution was calculated as follows: Fraction%=Mtissue/Mcapillaries+Mparenchyma×100 where Mtissue represents the amount of spilanthol in the capillaries, respectively parenchyma; Mcapillaries the amount of spilanthol in the capillaries and Mparenchyma the amount of spilanthol in the parenchyma.

[5] = Pharmacokinetic oral gavage experiment in rats (serum spilanthol, one compartmental model); type: in vivo, Wistar rats; conditions: for half-life: 1.5 ml of 0.73 mg spilanthol/g dose solution, read-out: elimination half-life (converted)
Method: The Wistar rats were bred in Bharat Serum and Vaccines pvt. Ltd, Thane, India (registration number 103/99/CPCSEA) and kept for the experiments at C. U. Shah College of Pharmacy, SNDT Women’s University, Santacruz, Mumbai, India (registration number 39/99/CPCSEA). The half of the rats used in the experiment were female rats and the other half male rats. Rats of 7-8 weeks old, weighing 220 g, and fasted overnight were used for the experiment.
The pharmacokinetic oral gavage experiment was carried out at C. U. Shah College of Pharmacy, SNDT Women’s University, Santacruz, Mumbai, India. A spilanthol dose solution was prepared with the Spilanthes acmella (L.) L. extract (A.Vogel). 1.5 ml of a spilanthol dose solution of 0.73 mg spilanthol/g dose solution in 10:20:30:40 (w/w/w/w) ethanol:PG:vitamin E-TPGS:PEG400 was administered to the rats using a gavage needle made up of stainless steel (length 3 inches and 2.5 mm internal diameter). A blank dose solution was used as well, containing ethanol, PG, vitamin E-TPGS and PEG without spilanthol. For each dose solution, six rats were used of which three were females and three males. Blood was collected (1.5 ml) from the retro orbital vein at specified time points i.e. 1, 2, 3, 4, 6, and 8 h after oral administration of the dose solution. The collected blood samples were centrifuged using a Remi R-24 centrifuge. At the end of the study, the animals were sacrificed by CO2 inhalation. All samples were immediately frozen at -80 °C until bio-analysis. The elimination rate constant was calculated using a one compartmental model using GraphPad software (La Jolla, USA), using the following equation: Ct=C0×e^−ke×t , in which t is time (h), C0 the concentration of spilanthol at time t = 0 (ng/ml), C(t) the concentration of spilanthol at time t and ke the elimination rate constant (h^−1). The elimination half-life (h) is computed as ln(2)/ke.
60 μl of the serum samples, 60 μl of 4 % (V/V) aqueous H3PO4 solution and 30 μl of the IS solution were transferred into a 0.5 ml (LoBind Eppendorf) tube and vortexed. Interfering compounds were removed by solid phase extraction using a positive pressure-96 processor (Waters). […] After the loading step, the HLB Oasis® μelution plate was washed using 200 μl of 5 % MeOH in H2O followed by 200 μl of 20 % MeOH in H2O. Spilanthol was eluted using two times 25 μl ACN. To the eluate, 25 μl of a 80:20 (V/V) H2O:MeOH solution was added and analysed with a UPLC-MS^2 method, as further described.

[6] = set-up: method as in PMID 20227845, PMID 19808085, PMID 23583736; conditions: human skin, topical application; cited from earlier work

In the case of `C/C=C/C=C\CC/C=C/C(=O)NCC(C)C` [spilanthol, deca-2E,6Z,8E-trienoic acid isobutylamide], the LogP [1] is given as 3.39, the “toxicity during the experiment” value (blood-brain barrier [2]; i.v. spilanthol dose solution with ethanol, dimethylacetamide, tween 80) is given as “no toxicity was observed” and the “exposure time at which brain/serum ratio curve reached a plateau-phase” value (blood-brain barrier [2]; i.v., MTR) is given as “about 10 min”. The “efflux transfer constant kout” value (blood-brain barrier [3]) was 0.11 min⁻¹, the Kp at 10 min ([4]; brain capillaries/serum, read-out: spilanthol in brain capillaries (brain/serum ratio)) was 0.0024 and the Kp at 10 min ([4]; brain parenchyma/serum, read-out: spilanthol in brain parenchyma (brain/serum ratio)) was 0.138. For the same compound, the k el ([5]; both sexes, Wistar, rat, serum, po, 0.73 mg, oral gavage of 1.5 ml of 0.73 mg spilanthol/g dose solution (A. Vogel extract), one compartmental model, read-out: elimination rate constant ke (converted)) was 0.000167 s⁻¹, the half-life ([5]; both sexes, Wistar, rat, serum, po, oral gavage (discussion, in brackets)) was 1.05 h and the half-life ([5]; both sexes, Wistar, rat, serum, po, oral gavage, ln(2)/ke) was 1.13 h. For the same compound, the “elimination rate constant ke” value ([5]; rat serum, oral gavage of 1.5 ml of 0.73 mg spilanthol/g dose solution (A. Vogel extract), one compartmental model) was 0.61 h⁻¹ and the “permeability coefficient Kp,aq” value [6] was 9.19 nm/s.
